Data published in patent US7361665B2, “Inhibitors of c-Jun N-terminal kinases (JNK) and other protein kinases” (Vertex Pharmaceuticals Incorporated, priority 2002, dated 2008).

These compounds were tested against T1, JNK3 (Homo sapiens, UniProt P53779) (assay: JNK inhibition assay (spectrophotometric coupled-enzyme assay)). Conditions: activated JNK3 10 nM, 10 μM ATP, 30° C.; read-out: JNK3 Activity (Ki rating).
T1 construct: One such construct encodes amino acid residues Ser40-Glu402 of JNK3α1 and is preceded by Met and Gly residues; Met-Gly dipeptide (initiation Met plus Gly added for the NcoI site) (N); made in house; host or cells: E. coli BL21 (DE3)
Type: biochemical
Text: A BLAST search of the EST database using the published JNK3α1 cDNA as a query identified an EST clone (#632588) that contained the entire coding sequence for human JNK3α1. Polymerase chain reactions (PCR) using pfu polymerase (Strategene) were used to introduce restriction sites into the cDNA for cloning into the pET-15B expression vector at the NcoI and BamHI sites. The protein was expressed in E. coli. Due to the poor solubility of the expressed full-length protein (Met 1-Gln 422), an N-terminally truncated protein starting at Ser residue at position 40 (Ser 40) was produced. This truncation corresponds to Ser 2 of JNK1 and JNK2 proteins, and is preceded by a methionine (initiation) and a glycine residue. The glycine residue was added in order to introduce an NcoI site for cloning into the expression vector. In addition, systematic C-terminal truncations were performed by PCR to identify a construct that give rise to diffraction-quality crystals. One such construct encodes amino acid residues Ser40-Glu402 of JNK3α1 and is preceded by Met and Gly residues.
Five mg of JNK3 was diluted to 0.5 mg/ml in 50 mM HEPES buffer, pH 7.5, containing 100 mM NaCl, 5 mM DTT, 20 mM MgCl2 and 1 mM ATP. GST-MKK7(DD) was added at a molar ratio of 1:2.5 GST-MKK7:JNK3. After incubation for 30 minutes at 25° C., the reaction mixture was concentrated 5-fold by ultrafiltration in a Centriprep-30 (Amicon, Beverly, Mass.), diluted to 10 ml and an additional 1 mM ATP added. This procedure was repeated three times to remove ADP and replenish ATP. The final addition of ATP was 5 mM and the mixture incubated overnight at 4° C.
The activated JNK3/GST-MKK7(DD) reaction mixture was exchanged into 50 mM HEPES buffer, pH 7.5, containing 5 mM DTT and 5% glycerol (w/v) by dialysis or ultrafiltration. The reaction mixture was adjusted to 1.1 M potassium phosphate, pH 7.5, and purified by hydrophobic interaction chromatography (at 25° C.) using a Rainin Hydropore column. […] Activated JNK3 (i.e. doubly phosphorylated JNK3) was stored at −70° C. at 0.25-1 mg/ml.
Compounds were assayed for the inhibition of JNK3 by a spectrophotometric coupled-enzyme assay. In this assay, a fixed concentration of activated JNK3 (10 nM) was incubated with various concentrations of a potential inhibitor dissolved in DMSO for 10 minutes at 30° C. in a buffer containing 0.1 M HEPES buffer, pH 7.5, containing 10 mM MgCl2, 2.5 mM phosphoenolpyruvate, 200 μM NADH, 150 μg/mL pyruvate kinase, 50 μg/mL lactate dehydrogenase, and 200 μM EGF receptor peptide. The EGF receptor peptide has the sequence […] (SEQ ID NO: 3), and is a phosphoryl acceptor in the JNK3-catalyzed kinase reaction. The reaction was initiated by the addition of 10 μM ATP and the assay plate is inserted into the spectrophotometer's assay plate compartment that was maintained at 30° C. The decrease of absorbance at 340 nm was monitored as a function of time. The rate data as a function of inhibitor concentration was fitted to competitive inhibition kinetic model to determine the Ki.
The compound numbers correspond to the compound numbers in Tables 1-3.

T1 sequence (P53779 40-402): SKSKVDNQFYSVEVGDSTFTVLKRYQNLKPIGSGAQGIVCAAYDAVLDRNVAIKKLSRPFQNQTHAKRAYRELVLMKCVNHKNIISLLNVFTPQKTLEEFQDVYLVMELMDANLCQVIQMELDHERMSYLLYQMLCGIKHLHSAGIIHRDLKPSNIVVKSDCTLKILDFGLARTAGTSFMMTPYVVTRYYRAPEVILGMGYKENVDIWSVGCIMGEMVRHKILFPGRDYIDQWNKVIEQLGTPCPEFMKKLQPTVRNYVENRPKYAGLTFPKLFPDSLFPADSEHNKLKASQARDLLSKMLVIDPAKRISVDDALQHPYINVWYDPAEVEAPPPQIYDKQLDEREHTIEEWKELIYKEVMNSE

SMILES | Ki [nM]
COCn1c(-c2ccnc(Nc3ccc(F)cc3)n2)cnc1-c1ccccc1 [IIa-11] | > 1000
COCn1c(-c2ccnc(Nc3ccccc3)n2)cnc1-c1ccccc1 [IIa-12] | > 1000
COCn1c(-c2ccnc(Nc3ccc([N+](=O)[O-])cc3)n2)cnc1-c1ccccc1 [IIa-13] | > 1000
COCn1c(-c2ccnc(Nc3cc(OC)cc(OC)c3)n2)cnc1-c1ccccc1 [IIa-15] | > 1000
COCn1c(-c2ccnc(Nc3cccc(Br)c3)n2)cnc1-c1ccccc1 [IIa-16] | > 1000
COCn1c(-c2ccnc(Nc3cccc(OCc4ccccc4)c3)n2)cnc1-c1ccccc1 [IIa-17] | > 1000
COc1cccc(Nc2nccc(-c3cnc(-c4cccnc4)n3C)n2)c1 [IIa-18] | 100 to 1000
COc1cc(Nc2nccc(-c3cnc(-c4cccnc4)n3C)n2)cc(OC)c1 [IIa-19] | 100 to 1000
Cn1c(-c2ccnc(Nc3cccc(Br)c3)n2)cnc1-c1cccnc1 [IIa-20] | 100 to 1000
Cn1c(-c2ccnc(Nc3ccc([N+](=O)[O-])cc3)n2)cnc1-c1cccnc1 [IIa-21] | 100 to 1000
COC(=O)c1cccc(Nc2nccc(-c3cnc(-c4cccnc4)n3C)n2)c1 [IIa-22] | 100 to 1000
Clc1ccc(Nc2nccc(-c3cnc(Cc4c(Cl)cccc4Cl)[nH]3)n2)cc1 [IIa-23] | 100 to 1000
COc1cccc(Nc2nccc(-c3cnc(Cc4c(Cl)cccc4Cl)[nH]3)n2)c1 [IIa-25] | < 100
COc1cc(Nc2nccc(-c3cnc(Cc4c(Cl)cccc4Cl)[nH]3)n2)cc(OC)c1 [IIa-26] | 100 to 1000
Clc1cccc(Cl)c1Cc1ncc(-c2ccnc(Nc3cccc(Br)c3)n2)[nH]1 [IIa-27] | 100 to 1000
Clc1cccc(Cl)c1Cc1ncc(-c2ccnc(Nc3ccccc3)n2)[nH]1 [IIa-28] | 100 to 1000
Clc1cccc(Cl)c1Cc1ncc(-c2ccnc(Nc3cccc(OCc4ccccc4)c3)n2)[nH]1 [IIa-29] | 100 to 1000
O=[N+]([O-])c1ccc(Nc2nccc(-c3cnc(Cc4c(Cl)cccc4Cl)[nH]3)n2)cc1 [IIa-30] | 100 to 1000
COC(=O)c1cccc(Nc2nccc(-c3cnc(Cc4c(Cl)cccc4Cl)[nH]3)n2)c1 [IIa-31] | 100 to 1000
Clc1ccc(Nc2nccc(-c3cnc(Cc4c(Cl)cccc4Cl)[nH]3)n2)cn1 [IIa-32] | 100 to 1000
Clc1ccc(Nc2nccc(-c3cnc(-c4ccccc4)o3)n2)cc1 [IIb-1, (4-Chloro-phenyl)-[4-(2-phenyl-oxazol-5-yl)-pyrimidin-2yl]-amine] | > 1000
Fc1ccc(Nc2nccc(-c3cnc(-c4ccccc4)o3)n2)cc1 [IIb-2] | 100 to 1000
COc1cccc(Nc2nccc(-c3cnc(-c4ccccc4)o3)n2)c1 [IIb-3] | 100 to 1000
COc1cc(Nc2nccc(-c3cnc(-c4ccccc4)o3)n2)cc(OC)c1 [IIb-4] | 100 to 1000
c1ccc(Nc2nccc(-c3cnc(-c4ccccc4)o3)n2)cc1 [IIb-5] | 100 to 1000
c1ccc(COc2cccc(Nc3nccc(-c4cnc(-c5ccccc5)o4)n3)c2)cc1 [IIb-6] | 100 to 1000
O=[N+]([O-])c1ccc(Nc2nccc(-c3cnc(-c4ccccc4)o3)n2)cc1 [IIb-7] | 100 to 1000
Cc1nc(-c2cccs2)sc1-c1ccnc(Nc2ccc(Cl)cc2)n1 [IIc-24] | > 1000
Cc1nc(-c2cccs2)sc1-c1ccnc(Nc2ccc([N+](=O)[O-])cc2)n1 [IIc-25] | > 1000
